Common to all, as to format: in vivo
The test system of test [1] is transformed Arabidopsis thaliana T1 plants (ALT-1, ALT-2 and ALT-3). Kind of test: Herbicide tolerance of transgenic Arabidopsis thaliana T1 plants, overall conclusion. The note with it: all transformed Arabidopsis thaliana T1 plants; 1-fold field concentration.
Text: (§1) Plants were counted for the resistance situations 14 days after spraying: those having a consistent growth status with the blank solvent (water) group after 14 days were classified as highly resistant plants, those having a bolting height less than ½ of that of the blank solvent (water) group after 14 days were classified as moderately resistant plants, those still not capable of bolting after 14 days were classified as poorly resistant plants, and those dead after 14 days were classified as non-resistant plants. Since each Arabidopsis thaliana T1 plant was an independent transformation event, a significant difference in individual T1 responses could be expected at a given dose.
as §1, with “situation” for “situations”

The subject of test [2] is wild-type Arabidopsis thaliana plants. Kind of test: Herbicide tolerance of Arabidopsis thaliana plants, sprayed, resistance classes counted 14 days after spraying. As to conditions: wild-type; sprayed at 1-fold field concentration; 14 days after spraying.
Text: (§2) T1 transformants were initially selected from the background of untransformed seeds using a glufosinate selection scheme. About 40000 T1 seeds were screened, and 380 T1 positive transformants (PAT gene) were identified with a transformation efficiency of about 0.95%. The plants that were transformed with the recombinant expression vector DBN100632 were Arabidopsis thaliana plants having an ALT-1-01 nucleotide sequence located in the cytoplasm introduced (At cytoplasmic ALT-1-01), and the plants that were transformed with the recombinant expression vector DBN100631 were Arabidopsis thaliana plants having an ALT-1-01 nucleotide sequence located in the chloroplast introduced (At chloroplastic ALT-1-01); the plants that were transformed with the recombinant expression vector DBN100634 were Arabidopsis thaliana plants having an ALT-2-01 nucleotide sequence located in the cytoplasm introduced (At cytoplasmic ALT-2-01), and the plants that were transformed with the recombinant expression vector DBN100633 were Arabidopsis thaliana plants having an ALT-2-01 nucleotide sequence located in the chloroplast introduced (At chloroplastic ALT-2-01); and the plants that were transformed with the recombinant expression vector DBN100636 were Arabidopsis thaliana plants having an ALT-3-01 nucleotide sequence located in the cytoplasm introduced (At cytoplasmic ALT-3-01), and the plants that were transformed with the recombinant expression vector DBN100635 were Arabidopsis thaliana plants having an ALT-3-01 nucleotide sequence located in the chloroplast introduced (At chloroplastic ALT-3-01).
as §1
as §1, with “situation” for “situations”

In test [3] the test system is At chloroplastic ALT-3-01 T1 plants. Put plainly: Herbicide tolerance of Arabidopsis thaliana T1 plants, sprayed, resistance classes counted 14 days after spraying. As to conditions: sprayed at 1-fold field concentration.
Text: as §2, §1
as §1, with “situation” for “situations”

Test [4] deals with At cytoplasmic ALT-1-01 T1 plants. The test is described as above. The note with it: sprayed at 1-fold field concentration.
Text: as §2, §1
as §1, with “situation” for “situations”

Test [5] concerns At chloroplastic ALT-1-01 T1 plants. Described as above. As to conditions: sprayed at 1-fold field concentration.
Text: as §2, §1
as §1, with “situation” for “situations”

The test system of test [6] is At cytoplasmic ALT-2-01 T1 plants. The test is described as above. The note with it: sprayed at 1-fold field concentration.
Text: as §2, §1
as §1, with “situation” for “situations”

Test [7] deals with At cytoplasmic ALT-3-01 T1 plants. Described as above. The note with it: sprayed at 1-fold field concentration.
Text: as §2, §1
as §1, with “situation” for “situations”

The test system of test [8] is At chloroplastic ALT-2-01 T1 plants. The description is as above. As to conditions: sprayed at 1-fold field concentration.
Text: as §2, §1
as §1, with “situation” for “situations”

Test [9] deals with Gm cytoplasmic ALT-1-01 soybean plants. Put plainly: Glyphosate tolerance of soybean plants, herbicide damage rate. The note with it: 840 g ae/ha (1-fold field concentration), 14 DAT. The text has this: (§3) The herbicide tolerance effects of Gm cytoplasmic ALT-1-01 soybean plants, Gm chloroplastic ALT-1-01 soybean plants, Gm cytoplasmic ALT-2-01 soybean plants, Gm chloroplastic ALT-2-01 soybean plants, Gm cytoplasmic ALT-3-01 soybean plants, Gm chloroplastic ALT-3-01 soybean plants and wild-type soybean plants on glyphosate were detected (at seedling stage), respectively.
(§4) 2 strains from Gm cytoplasmic ALT-1-01 soybean plants, Gm chloroplastic ALT-1-01 soybean plants, Gm cytoplasmic ALT-2-01 soybean plants, Gm chloroplastic ALT-2-01 soybean plants, Gm cytoplasmic ALT-3-01 soybean plants, Gm chloroplastic ALT-3-01 soybean plants and wild-type soybean plants were respectively taken each, and 10-15 plants were selected from each strain and tested. The plants above were sprayed with glyphosate (840 g ae/ha, 1-fold field concentration) and a blank solvent (water). The herbicide damage rate was measured for each plant according to the phytotoxicity symptoms 14 days after spraying (14 DAT): herbicide damage rate (%)=Σ(number of damaged plants at the same level× level number)/(total number of plants×highest level).

Test [10] relates to Gm chloroplastic ALT-2-01 soybean plants. The description is as above. As to conditions: 840 g ae/ha (1-fold field concentration), 14 DAT.
Text: as §3, §4

The subject of test [11] is Gm cytoplasmic ALT-2-01 soybean plants. Described as above. The note with it: 840 g ae/ha (1-fold field concentration), 14 DAT.
Text: as §3, §4

The subject of test [12] is Gm cytoplasmic ALT-3-01 soybean plants. Described as above. The note with it: 840 g ae/ha (1-fold field concentration), 14 DAT.
Text: as §3, §4

Test [13] concerns Gm chloroplastic ALT-1-01 soybean plants. The description is as above. As to conditions: 840 g ae/ha (1-fold field concentration), 14 DAT.
Text: as §3, §4

The test system of test [14] is Gm chloroplastic ALT-3-01 soybean plants. The description is as above. The note with it: 840 g ae/ha (1-fold field concentration), 14 DAT.
Text: as §3, §4

For test [15], the system named is wild-type soybean plants (CK1). The description is as above. The note with it: 840 g ae/ha (1-fold field concentration), 14 DAT.
Text: as §3, §4

The text below walks through data of patent publication US20190029252A1, “Use of Herbicide-tolerant Protein” (BEIJING DABEINONG TECHNOLOGY GROUP CO., LTD., priority 2016, published 2019).

With `Cc1cc(C)nc(NC(=O)NS(=O)(=O)c2ccccc2C(=O)OC2COC2)n1` [oxasulfuron], in test [1], the “ability of the transformed plants to degrade the herbicide (in words)” value (“ability of the transformed plants” for short) is listed as “did not exhibit the ability to degrade”. Moreover, the “Highly resistant (number of plants)” value in [2], in [3], in test [4], in test [5], in test [6] and in [7] was 0 throughout. Also, the “Highly resistant (number of plants)” value in test [8] came out at 0. The “Moderately resistant (number of plants)” value in test [2], in [3], in [4], in test [5], in test [6] and in test [7] was 0 in each case. In [8], the “Moderately resistant (number of plants)” value amounted to 0. For the same compound, the “Non-resistant (number of plants)” value in test [2] worked out at 28; in [3] it was 31; in [4], 28; in test [5], 30; in test [6] it was 30; in [7] it was 30. In [8], the “Non-resistant (number of plants)” value is 30. Further, the “Poorly resistant (number of plants)” value in [2], in test [3], in test [4], in test [5], in test [6] and in [7] was 0 in each case. For the same compound, the “Poorly resistant (number of plants)” value in test [8] amounted to 0.
In the case of `COC(=O)c1ccc(I)cc1S(=O)(=O)NC(=O)Nc1nc(C)nc(OC)n1` [iodosulfuron-methyl], the “ability of the transformed plants” value in test [1] is given as “did not exhibit the ability to degrade”. Besides, the “Highly resistant (number of plants)” value in test [2], in [3], in [4], in test [5], in test [6] and in test [7] was 0 in each case. Moreover, the “Highly resistant (number of plants)” value in test [8] stood at 0. The “Moderately resistant (number of plants)” value in test [2], in test [3], in test [4], in test [5], in [6] and in test [7] was 0 in each case. Moreover, in test [8], the “Moderately resistant (number of plants)” value turned out to be 0. In addition, the “Non-resistant (number of plants)” value in [2] was found to be 29; in test [3], 32; in [4], 29; in [5] it was 30; in test [6] it was 30; in test [7] it was 30. Moreover, in [8], the “Non-resistant (number of plants)” value is listed as 31. In addition, the “Poorly resistant (number of plants)” value in test [2], in test [3], in test [4], in test [5], in test [6] and in test [7] was 0 in each case. Further, the “Poorly resistant (number of plants)” value in test [8] was found to be 0.
Consider `O=C(O)CNCP(=O)(O)O` [glyphosate, N-phosphonomethylglycine], for which the “glyphosate herbicide damage rate” value in test [9], in [10], in test [11], in [12], in test [13] and in test [14] was ~0% each time. Besides, the “glyphosate herbicide damage rate” value in [15] is “not less than 90%”.
Take `COC(=O)c1ccc(CNS(C)(=O)=O)cc1S(=O)(=O)NC(=O)Nc1nc(OC)cc(OC)n1` [mesosulfuron]: the “ability of the transformed plants” value in [1] is reported as “did not exhibit the ability to degrade”. In addition, the “Highly resistant (number of plants)” value in test [2], in [3], in test [4], in test [5], in test [6] and in test [7] was 0 each time. The “Highly resistant (number of plants)” value in test [8] was 0. Moreover, the “Moderately resistant (number of plants)” value in [2], in test [3], in test [4], in test [5], in test [6] and in test [7] was 0 throughout. Further, in test [8], the “Moderately resistant (number of plants)” value is given as 0. The “Non-resistant (number of plants)” value in test [2] is recorded as 28; in test [3] it was 32; in [4] it was 29; in test [5], 32; in test [6], 32; in test [7] it was 30. The “Non-resistant (number of plants)” value in test [8] is recorded as 30. Moreover, the “Poorly resistant (number of plants)” value in test [2], in [3], in test [4], in test [5], in test [6] and in test [7] was 0 in each case. Further, the “Poorly resistant (number of plants)” value in test [8] is 0.
